Assays:
lung cancer cells A549 = assay: Growth of lung cancer cells A549 (IC50); type: cell-based, human; conditions: 72 hours of incubation
Description: (§1) For the experiments shown in FIG. 1, cultured human Non Small Cell Lung Cancer cells (A549) in RPMI 1640 were used, supplemented with 10% foetal bovine serum and antibiotics, at 37° C. and 5% CO2. […] After treatment, cell count was performed and the study of the mechanisms involved in the antitumor activity of compounds was evaluated by flow cytometry. […] These values correspond to averages of three independent experiments.
(§2) These charts show the antitumor efficacy of the compounds of this invention against the growth of breast cancer cells, brain (glioma), and lung cancer. […] The other experimental conditions are identical to those described in the preceding paragraph.

[1] = test system: Spontaneously Hypertensive Rats (SHR); assay: Blood pressure of SHR rats (cuff-tail method); type: in vivo, rat; conditions: 200 mg/kg day p.o., 30 days, before treatment 214 mmHg
Description: (§3) In a separate experimental series, it was studied the effect of D-PUFA molecules of the present invention on blood pressure of SHR rats. In these animals both, blood pressure and levels of apolipoprotein AI (apoA-I) were measured. For these experiments Spontaneously Hypertensive Rats (SHR) were treated for 30 days with vehicle (water control) or compounds of the invention (200 mg/kg day, p.o.). At the end of this period, the animals' blood pressure and serum levels of apoA-I were measured. […] For these experiments, non-invasive methods for determining blood pressure (cuff-tail method) and gene expression for apoA-I (RT-PCR) described in the literature (Terés et al., 2008) were used. The usefulness of the molecules of the present invention for the treatment of cardiovascular diseases is reinforced by its capacity for reducing the levels of serum cholesterol and triglycerides (see below).
(§4) The average values of SHR before treatment were 214 mmHg and 100% respectively.

[2] = test system: breast cancer cells MDA-MB-231; assay: Growth of breast cancer cells MDA-MB-231; type: cell-based; conditions: 72 hours of incubation
Description: as §1, §2

[3] = test system: apolipoprotein AI (apoA-I); assay: Levels of apoA-I in SHR rats (RT-PCR); type: in vivo, rat; conditions: 200 mg/kg day p.o., 30 days, before treatment 100%
Description: as §3, §4

[4] = Lamellar-to-hexagonal (HII) transition temperature in DEPE model membranes by Differential Scanning Calorimetry; type: physicochemical; conditions: DEPE membranes, DEPE:D-PUFA 10:1 (mol:mol)
Description: The transition temperature was determined by Differential Scanning Calorimetry. The proportion DEPE:D-PUFA was 10:1 (mol:mol) in all cases. Lamellar-to-hexagonal transition is an important parameter that reflects relevant signalling properties of cell membranes. […] When this occurs, certain peripheral membrane proteins (such as G proteins, protein kinase C or Ras protein) can more easily bind to the membrane, while others have a poor interaction (e.g., the Gα-protein), so changes in the HII transition temperature are important in regulating cellular functions related to health and human therapy (Escriba et al., 1995, Vogler et al., 2004; Escriba, 2006).
Control values correspond to model membranes in the absence of fatty acids. The reduction in HII transition temperature obtained by using the D-PUFA of the invention indicates an increased induction of membrane discontinuities, generating anchoring sites in the membrane for peripheral proteins and leads to better regulation of cell signalling and, therefore, greater effectiveness in the control of certain diseases.

[5] = test system: brain cancer cell (glioma) U118; assay: Brain cancer (glioma) U118 cell growth; type: cell-based; conditions: 72 hours of incubation
Description: For the experiments shown in FIG. 1, cultured human Non Small Cell Lung Cancer cells (A549) in RPMI 1640 were used, supplemented with 10% foetal bovine serum and antibiotics, at 37° C. and 5% CO2. Cells were maintained in culture for 48 hours in the presence or absence of D-PUFAs and PUFAs indicated in Table 2 at a concentration of 250 µM. After treatment, cell count was performed and the study of the mechanisms involved in the antitumor activity of compounds was evaluated by flow cytometry. […] These values correspond to averages of three independent experiments.
as §2

IC50 (lung cancer cells A549) [µM]	IC50 [2] [µM]	Temperature of lamellar-to-hexagonal transition [4] [°C]	IC50 [5] [µM]	SMILES	Blood pressure [1] [mm Hg]	Levels of apoA-I [3] [%]
328	419			CCCCCC=CCC=CCCCCCCC(CO)C(=O)O (centres unmarked) [182P1]	202	184
295	159	50.1	394	CCCCCC=CCC=CCC=CCCCC(OC)C(=O)O (centres unmarked) [183G2]		
344	267	51.2	370	CCC=CCC=CCC=CCCCCCCC(Cl)C(=O)OCC (centres unmarked) [183O1]		
317	349		285	CCC=CCC=CCC=CCCCCCCC(CO)C(=O)O (centres unmarked) [183P1]	201	178
272	214		389	CCCCCC=CCC=CCC=CCCCC(CO)C(=O)O (centres unmarked) [183P2]	187	347
258	305	51.8	307	CCC=CCC=CCC=CCCCCCCC(OP(=O)(OCC)OCC)C(=O)OCC (centres unmarked) [183R1]		
274	172	49.9	454	CCCCCC=CCC=CCC=CCCCC(OP(=O)(OCC)OCC)C(=O)OCC (centres unmarked) [183R2]		
372	281	48.7	311	CCCCCC=CCC=CCC=CCC=CCCC(O)C(=O)OC (centres unmarked) [204D1]		
475	299	48.4	224	CCCCCC=CCC=CCC=CCC=CCCC(O)C(=O)OCC (centres unmarked) [204E1]		
427	372	49.6	342	CCCCCC=CCC=CCC=CCC=CCCC(OC)C(=O)O (centres unmarked) [204G1]		
387	370		291	CCCCCC=CCC=CCC=CCC=CCCC(CO)C(=O)O (centres unmarked) [204P1]	203	153
364	285	50	501	CCCCCC=CCC=CCC=CCC=CCCC(OP(=O)(OCC)OCC)C(=O)OCC (centres unmarked) [204R1]		
364	2	47.5	467	CCC=CCC=CCC=CCC=CCC=CCCC(O)C(=O)OC (centres unmarked) [205D1]		
407	219	47.3	426	CCC=CCC=CCC=CCC=CCC=CCCC(OC)C(=O)O (centres unmarked) [205G1]		
339	301		432	CCC=CCC=CCC=CCC=CCC=CCCC(CO)C(=O)O (centres unmarked) [205P1]	194	337
417	245	48.4	468	CCC=CCC=CCC=CCC=CCC=CCCC(OP(=O)(OCC)OCC)C(=O)OCC (centres unmarked) [205R1]		
221	224	43.9	241	CCC=CCC=CCC=CCC=CCC=CCC=CCC(O)C(=O)OC (centres unmarked) [226D1]		
209	207	42.9	265	CCC=CCC=CCC=CCC=CCC=CCC=CCC(O)C(=O)OCC (centres unmarked) [226E1]		
273	213	44.1	278	CCC=CCC=CCC=CCC=CCC=CCC=CCC(OC)C(=O)O (centres unmarked) [226G1]		
291	250		290	CCC=CCC=CCC=CCC=CCC=CCC=CCC(CO)C(=O)O (centres unmarked) [226P1]	193	382

SMILES	IC50 (lung cancer cells A549) [µM]	IC50 [2] [µM]	Temperature of lamellar-to-hexagonal transition [4] [°C]	IC50 [5] [µM]	Blood pressure [1] [mm Hg]	Levels of apoA-I [3] [%]
CCC=CCC=CCC=CCC=CCC=CCCC(O)C(=O)OCC (centres unmarked) [205E1]	413	284	46.7	513		
